# Source: patent publication US4220755A, “Fortimicin B derivatives and process for production thereof” (Abbott Laboratories, priority 1976, dated 1980)
# What was measured:
# [1] = tested on: Pseudomonas aeruginosa R9 KY8516; assay: MIC, agar dilution method, pH 7.2; assay type: cell-based; conditions: R9KY8516, pH 7.2, P. aeruginosa R9 KY8516, 3**: kanamycin, producing acetyltransferase, read-out: Minimum inhibition concentration (MIC)
# Description: (§1) Measurement was carried out according to the agar dilution method, using a medium of pH 8.0, or the Japanese Antibiotic Medicament Standard, using a medium of pH 7.2 Units are in mcg/ml.
# (§2) 3: kanamycin, producing acetyltransferase.
# Serratia marcescens 1065 = assay: MIC, agar dilution method, pH 7.2; assay type: cell-based; conditions: pH 7.2; Serratia marcescens 1065; 3**: kanamycin, producing acetyltransferase; read-out: Minimum inhibition concentration (MIC)
# Description: as §1, §2
# [2] = tested on: Escherichia coli R17 Z343; assay: MIC, agar dilution method, pH 7.2; assay type: cell-based; conditions: R17Z343, pH 7.2, E. coli R17 Z343, 3**: kanamycin, producing acetyltransferase, read-out: Minimum inhibition concentration (MIC)
# Description: as §1, §2
# various microorganisms = assay: Antibacterial activity (general statements); assay type: cell-based; conditions: qualitative statement
# Description: as §1
# [3] = tested on: Staphylococcus aureus KY4279 ATCC6538P; assay: MIC, agar dilution method, pH 8.0; assay type: cell-based; conditions: Staphylococcus aureus, pH 8, read-out: Minimum inhibition concentration (MIC), SA
# Description: as §1
# S.A.: Staphylococcus aureus KY4279 ATCC6538P
# [4] = tested on: Staphylococcus a ureus 226; assay: MIC, agar dilution method, pH 7.2; assay type: cell-based, Staphylococcus aureus; conditions: pH 7.2; Staphylococcus aureus 226; read-out: Minimum inhibition concentration (MIC)
# Description: as §1
# [5] = tested on: Staphylococcus aureus 209-P; assay: MIC, agar dilution method, pH 7.2; assay type: cell-based; conditions: pH 7.2; Staphylococcus aureus 209-P; read-out: Minimum inhibition concentration (MIC)
# Description: as §1
# Proteus vulgaris JJ = assay: MIC, agar dilution method, pH 7.2; assay type: cell-based; conditions: pH 7.2; Proteus vulgaris JJ; read-out: Minimum inhibition concentration (MIC)
# Description: as §1
# [6] = tested on: Klebsiella pneumoniae KY4274; assay: MIC, agar dilution method, pH 7.2; assay type: cell-based; conditions: pH 7.2; Klebsiella pneumoniae KY4274; read-out: Minimum inhibition concentration (MIC)
# Description: as §1
# Escherichia coli NIHTC-2 = assay: MIC, agar dilution method, pH 7.2; assay type: cell-based; conditions: NIHTC2; pH 7.2; Escherichia coli NIHTC-2; read-out: Minimum inhibition concentration (MIC)
# Description: as §1
# [7] = tested on: Staphylococcus aureus Smith (A); assay: MIC, agar dilution method, pH 7.2; assay type: cell-based; conditions: pH 7.2; Staphylococcus aureus Smith (A); read-out: Minimum inhibition concentration (MIC)
# Description: as §1
# [8] = tested on: Pseudomonas aeruginosa BMH# 1; assay: MIC, agar dilution method, pH 7.2; assay type: cell-based; conditions: pH 7.2; Pseudomonas aeruginosa BMH# 1; read-out: Minimum inhibition concentration (MIC)
# Description: as §1
# [9] = tested on: Eschericihia coli GN2411-5; assay: MIC, agar dilution method, pH 7.2; assay type: cell-based; conditions: Escherichia coli; pH 7.2; E. coli GN2411-5; read-out: Minimum inhibition concentration (MIC)
# Description: as §1
# [10] = tested on: Salmonella enteritidis G-14; assay: MIC, agar dilution method, pH 7.2; assay type: cell-based; conditions: Salmonella enterica; pH 7.2; Salmonella enteritidis G-14; read-out: Minimum inhibition concentration (MIC)
# Description: as §1
# Shigella sonnei ATCC9290 = assay: MIC, agar dilution method, pH 7.2; assay type: cell-based; conditions: read-out: Minimum inhibition concentration (MIC)
# Description: as §1
# [11] = tested on: Pseudomonas aeruginosa UCLA 4184; assay: MIC, agar dilution method, pH 7.2; assay type: cell-based; conditions: UCLA4184; pH 7.2; Pseudomonas aeruginosa UCLA 4184; read-out: Minimum inhibition concentration (MIC)
# Description: as §1
# [12] = tested on: Salmonella typhosa KY4278 ATCC9992; assay: MIC, agar dilution method, pH 8.0; assay type: cell-based; conditions: Salmonella enterica, pH 8, read-out: Minimum inhibition concentration (MIC), ST
# Description: as §1
# S.T.: Salmonella typhosa KY4278 ATCC9992
# [13] = tested on: Eschericia coli KY4271 ATCC26; assay: MIC, agar dilution method, pH 8.0; assay type: cell-based; conditions: Escherichia coli, ATCC26; pH 8.0; E. coli KY4271; read-out: Minimum inhibition concentration (MIC), EC
# Description: as §1
# E.C.: Eschericia coli KY4271 ATCC26
# Providencia sp 164 = assay: MIC, agar dilution method, pH 7.2; assay type: cell-based; conditions: pH 7.2; Providencia sp 164; 7**: gentamicin, producing acetyltransferase type II; read-out: Minimum inhibition concentration (MIC)
# Description: as §1
# 7: gentamicin, producing acetyltransferase type II.
# [14] = tested on: Escherichia coli R18 KY8321; assay: MIC, agar dilution method, pH 7.2; assay type: cell-based; conditions: R18KY8321, E. coli R18 KY8321, 2**: gentamicin, producing adenylsynthetase and neomycin phosphotransferase type II, read-out: Minimum inhibition concentration (MIC)
# Description: as §1
# 2: gentamicin, producing adenylsynthetase and neomycin phosphotransferase
# Eschericihia coli 3100 = assay: MIC, agar dilution method, pH 7.2; assay type: cell-based, Escherichia coli; conditions: Escherichia coli; pH 7.2; E. coli 3100; read-out: Minimum inhibition concentration (MIC)
# Description: as §1
# [15] = tested on: Escherichia coli R20 KY8349; assay: MIC, agar dilution method, pH 7.2; assay type: cell-based; conditions: R20KY8349, pH 7.2, E. coli R20 KY8349, 5**: neomycin, producing phosphotransferase type I, read-out: Minimum inhibition concentration (MIC)
# Description: as §1
# 5: neomycin, producing phosphotransferase type I.
# [16] = tested on: Pseudomonas aeruginosa R4 KY8511; assay: MIC, agar dilution method, pH 7.2; assay type: cell-based; conditions: R4KY8511, pH 7.2, P. aeruginosa R4 KY8511, 4**: gentamicin, producing acetyltransferase type I, read-out: Minimum inhibition concentration (MIC)
# Description: as §1
# (§3) 4: gentamicin, producing acetyltransferase type I.
# [17] = tested on: Escherichia coli R19 KY8348; assay: MIC, agar dilution method, pH 7.2; assay type: cell-based; conditions: R19KY8348, pH 7.2, E. coli R19 KY8348, 4**: gentamicin, producing acetyltransferase type I, read-out: Minimum inhibition concentration (MIC)
# Description: as §1, §3
# [18] = tested on: Pseudomonas aeruginosa R5 KY8512; assay: MIC, agar dilution method, pH 7.2; assay type: cell-based; conditions: R5KY8512, pH 7.2, P. aeruginosa R5 KY8512, 6**: neomycin, producing phosphotransferase type I and type II, read-out: Minimum inhibition concentration (MIC)
# Description: as §1
# 6: neomycin, producing phosphotransferase type I and type II.
# [19] = tested on: Klebsiella pneumoniae KY4275 ATCC10031; assay: MIC, agar dilution method, pH 8.0; assay type: cell-based; conditions: ATCC10031; pH 8.0; Klebsiella pneumoniae KY4275; read-out: Minimum inhibition concentration (MIC), KP
# Description: as §1
# K.P.: Klebsiella pneumoniae KY4275 ATCC10031.
# Bacillus subtilis KY4273 = assay: MIC, agar dilution method, pH 8.0; assay type: cell-based; conditions: Bacillus subtilis, KY4273, pH 8, read-out: Minimum inhibition concentration (MIC), BS
# Description: as §1
# B.S.: Bacillus subtilis KY4273
# [20] = tested on: Proteus vulgaris KY4277 ATCC6897; assay: MIC, agar dilution method, pH 8.0; assay type: cell-based; conditions: ATCC6897; pH 8.0; Proteus vulgaris KY4277; read-out: Minimum inhibition concentration (MIC), PV
# Description: as §1
# [21] = tested on: Shigella sonnei KY4281 ATCC9290; assay: MIC, agar dilution method, pH 8.0; assay type: cell-based; conditions: ATCC9290; pH 8.0; Shigella sonnei KY4281; read-out: Minimum inhibition concentration (MIC), SS
# Description: as §1
# [22] = tested on: Escherichia coli 57R/W677; assay: MIC, agar dilution method, pH 7.2; assay type: cell-based; conditions: 57R/W677, pH 7.2, read-out: Minimum inhibition concentration (MIC)
# Description: as §1
# (§4) **1: gentamicin, producing adenylsynthetase.
# Escherichia coli 76-2 = assay: MIC, agar dilution method, pH 7.2; assay type: cell-based; conditions: Escherichia coli, 762; pH 7.2; E. coli 76-2; 1**: gentamicin, producing adenylsynthetase; read-out: Minimum inhibition concentration (MIC)
# Description: as §1, §4
# [23] = tested on: Klebsiella pneumoniae 3020 Y-60; assay: MIC, agar dilution method, pH 7.2; assay type: cell-based; conditions: 3020Y60; pH 7.2; Klebsiella pneumoniae 3020 Y-60; 1**: gentamicin, producing adenylsynthetase; read-out: Minimum inhibition concentration (MIC)
# Description: as §1, §4
# [24] = tested on: Escherichia coli R12 Z-338; assay: MIC, agar dilution method, pH 7.2; assay type: cell-based; conditions: R12Z338, pH 7.2, E. coli R12 Z-338, 1**: gentamicin, producing adenylsynthetase, read-out: Minimum inhibition concentration (MIC)
# Description: as §1, §4
structure (smiles),measurement,setting,value
"CN[C@H]1[C@@H](O)[C@H](O[C@H]2O[C@H]([C@H](C)N)CC[C@H]2N)[C@@H](N)[C@H](O)[C@@H]1OC [Compound 1, fortimicin B]",MIC,[1],> 100 µg/mL
same,MIC,Serratia marcescens 1065,> 100 µg/mL
same,MIC,[2],> 100 µg/mL
same,Antibacterial activity,various microorganisms,not as good as the other factors
same,MIC,[3],12.5 µg/mL
same,MIC,[4],100 µg/mL
same,MIC,[5],> 100 µg/mL
same,MIC,Proteus vulgaris JJ,> 100 µg/mL
same,MIC,[6],100 µg/mL
same,MIC,Escherichia coli NIHTC-2,> 100 µg/mL
same,MIC,[7],100 µg/mL
same,MIC,[8],> 100 µg/mL
same,MIC,[9],> 100 µg/mL
same,MIC,[10],100 µg/mL
same,MIC,Shigella sonnei ATCC9290,> 100 µg/mL
same,MIC,[11],> 100 µg/mL
same,MIC,[12],12.5 µg/mL
same,MIC,[13],25 µg/mL
same,MIC,Providencia sp 164,> 100 µg/mL
same,MIC,[14],> 100 µg/mL
same,MIC,Eschericihia coli 3100,100 µg/mL
same,MIC,[15],> 100 µg/mL
same,MIC,[16],> 100 µg/mL
same,MIC,[17],> 100 µg/mL
same,MIC,[18],> 100 µg/mL
same,MIC,[19],50 µg/mL
same,MIC,Bacillus subtilis KY4273,12.5 µg/mL
same,MIC,[20],25 µg/mL
same,MIC,[21],50 µg/mL
same,MIC,[22],> 100 µg/mL
same,MIC,Escherichia coli 76-2,> 100 µg/mL
same,MIC,[23],> 100 µg/mL
same,MIC,[24],> 100 µg/mL
